This is an account of results in ChEMBL document CHEMBL1201862, “PubChem BioAssay data set” (2004).

Activity calls are given as the source filed them. Rule as the data show it: actives have a measured IC50 and inactives only a lower limit.

This assay concerns the target T1, Alkaline phosphatase, tissue-nonspecific isozyme (Homo sapiens, UniProt P05186).
T1 sequence (P05186 whole entry): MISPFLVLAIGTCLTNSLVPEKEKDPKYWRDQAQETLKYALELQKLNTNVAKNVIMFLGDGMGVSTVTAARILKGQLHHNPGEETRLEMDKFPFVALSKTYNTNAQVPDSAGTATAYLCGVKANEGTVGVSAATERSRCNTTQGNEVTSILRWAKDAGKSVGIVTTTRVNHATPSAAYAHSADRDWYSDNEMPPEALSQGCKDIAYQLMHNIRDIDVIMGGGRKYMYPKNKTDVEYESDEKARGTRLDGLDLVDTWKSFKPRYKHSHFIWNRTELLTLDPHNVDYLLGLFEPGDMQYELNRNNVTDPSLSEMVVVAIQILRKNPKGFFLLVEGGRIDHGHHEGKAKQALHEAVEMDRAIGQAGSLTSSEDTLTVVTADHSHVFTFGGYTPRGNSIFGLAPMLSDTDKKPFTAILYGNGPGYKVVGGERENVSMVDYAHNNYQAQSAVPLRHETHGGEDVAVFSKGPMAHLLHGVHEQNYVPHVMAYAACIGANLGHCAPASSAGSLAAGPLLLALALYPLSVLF
Briefly: TNAP enzyme inhibition by screening hits, dose response, selectivity assay for mouse IAP inhibitor project, biochemical, human TNAP, uHTS hits (AID 488906). In kind it is functional.

Usually IC50 stands for the concentration that inhibits the measured activity by half. For `O=c1ccc2c(-c3ccccc3S(=O)(=O)O)c3ccc(O)c(O)c3oc-2c1O` [PYROGALLOL RED], the IC50 was 24.1 µM (active).
